This experiment has as its system SARS-CoV-2 M^pro precursors Nsp4-4F-M^pro-GST and 4F-M^pro-GST. It is filed as cell-based.

Where a SMILES comes first, the peptide text is derived from it.

The text below walks through data of paper PMC11359197 (Viruses, 2024).

In the case of `CC(C)C[C@H](NC(=O)[C@H]1O[C@@H]1C(=O)O)C(=O)NCCCCN=C(N)N` [E-64], the “AlphaLISA signal (precursor-mediated N-terminal processing)” value (from here on “AlphaLISA signal”) is reported as “background levels”.
In the case of `CC(NC(=O)[C@H](Cc1ccccc1)NC(=O)OCc1ccccc1)C(=O)CF` (stereo partly drawn) [Z-FA-FMK], the “AlphaLISA signal” value is “no detectable impact”.
As for `COC(=O)N[C@H](C(=O)N[C@@H](Cc1ccccc1)[C@@H](O)CN(Cc1ccc(-c2ccccn2)cc1)NC(=O)[C@@H](NC(=O)OC)C(C)(C)C)C(C)(C)C` [atazanavir], the “AlphaLISA signal” value is “background levels”.
As for `CC(C)(C)NC(=O)N[C@H](C(=O)N1C[C@H]2[C@@H]([C@H]1C(=O)NC(CC1CCC1)C(=O)C(N)=O)C2(C)C)C(C)(C)C` (stereo partly drawn) [boceprevir, Boceprevir], the “AlphaLISA signal” value is given as “no detectable impact”.
`CSCC[C@@H](C=O)NC(=O)[C@H](CC(C)C)NC(=O)[C@H](CC(C)C)NC(C)=O` [calpain inhibitor II] (Ac-Leu-Leu-Met-aldehyde): the “AlphaLISA signal” value is listed as “no detectable impact”.
Next, `Cc1cccc(C)c1OCC(=O)N[C@@H](Cc1ccccc1)[C@@H](O)C[C@H](Cc1ccccc1)NC(=O)[C@H](C(C)C)N1CCCNC1=O` [lopinavir]: “background levels”.
